# Data taken from US20250179088A9 (ZYMEWORKS BC INC., priority 2020, published 2025).
# Tests used:
# TLR8 = target: T1, TLR8 (Homo sapiens, UniProt Q9NR97); experiment: Reporter gene assay, HEK-Blue TLR8 reporter cells (SEAP)
# T1 sequence (Q9NR97 27-1041): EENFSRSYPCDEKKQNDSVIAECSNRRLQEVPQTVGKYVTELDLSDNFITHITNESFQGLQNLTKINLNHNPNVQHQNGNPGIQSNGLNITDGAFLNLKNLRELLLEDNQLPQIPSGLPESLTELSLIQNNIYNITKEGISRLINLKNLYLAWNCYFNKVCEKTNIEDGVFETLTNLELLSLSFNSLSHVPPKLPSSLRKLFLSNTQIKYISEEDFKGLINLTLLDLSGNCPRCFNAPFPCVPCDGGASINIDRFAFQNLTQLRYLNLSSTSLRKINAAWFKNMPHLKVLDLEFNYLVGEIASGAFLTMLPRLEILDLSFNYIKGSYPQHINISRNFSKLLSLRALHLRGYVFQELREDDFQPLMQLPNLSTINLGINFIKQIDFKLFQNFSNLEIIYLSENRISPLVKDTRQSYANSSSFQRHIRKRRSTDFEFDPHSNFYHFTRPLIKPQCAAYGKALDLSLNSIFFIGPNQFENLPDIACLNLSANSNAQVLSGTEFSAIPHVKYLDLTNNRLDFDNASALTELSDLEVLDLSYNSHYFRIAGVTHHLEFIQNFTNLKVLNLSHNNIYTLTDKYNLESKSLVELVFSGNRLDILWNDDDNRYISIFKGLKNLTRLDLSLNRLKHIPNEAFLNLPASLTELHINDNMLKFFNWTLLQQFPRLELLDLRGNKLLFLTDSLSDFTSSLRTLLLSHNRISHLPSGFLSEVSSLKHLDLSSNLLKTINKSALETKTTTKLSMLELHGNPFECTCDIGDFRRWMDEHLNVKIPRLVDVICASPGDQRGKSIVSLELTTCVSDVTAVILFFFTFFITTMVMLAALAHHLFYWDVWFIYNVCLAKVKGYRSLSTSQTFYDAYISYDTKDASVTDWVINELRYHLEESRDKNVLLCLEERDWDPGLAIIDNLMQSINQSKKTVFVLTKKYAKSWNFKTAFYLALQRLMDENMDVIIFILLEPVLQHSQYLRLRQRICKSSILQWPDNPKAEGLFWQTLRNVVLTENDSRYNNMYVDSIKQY
# Description: (§1) 3×10^4 HEK-Blue™ TLR7 or 3×10^4 TLR8 reporter cells (InvivoGen, San Diego, CA) were treated with titrated (4-fold) amounts of test compound. […] Cells were incubated overnight at 37° C. and 5% CO2, then absorbance (620 and 655 nm) was read on a Synergy™ H1 microplate reader.
# TLR7 = target: T2, TLR7 (Homo sapiens, UniProt Q9NYK1); experiment: Reporter gene assay, HEK-Blue TLR7 reporter cells (SEAP)
# T2 sequence (Q9NYK1 27-1049): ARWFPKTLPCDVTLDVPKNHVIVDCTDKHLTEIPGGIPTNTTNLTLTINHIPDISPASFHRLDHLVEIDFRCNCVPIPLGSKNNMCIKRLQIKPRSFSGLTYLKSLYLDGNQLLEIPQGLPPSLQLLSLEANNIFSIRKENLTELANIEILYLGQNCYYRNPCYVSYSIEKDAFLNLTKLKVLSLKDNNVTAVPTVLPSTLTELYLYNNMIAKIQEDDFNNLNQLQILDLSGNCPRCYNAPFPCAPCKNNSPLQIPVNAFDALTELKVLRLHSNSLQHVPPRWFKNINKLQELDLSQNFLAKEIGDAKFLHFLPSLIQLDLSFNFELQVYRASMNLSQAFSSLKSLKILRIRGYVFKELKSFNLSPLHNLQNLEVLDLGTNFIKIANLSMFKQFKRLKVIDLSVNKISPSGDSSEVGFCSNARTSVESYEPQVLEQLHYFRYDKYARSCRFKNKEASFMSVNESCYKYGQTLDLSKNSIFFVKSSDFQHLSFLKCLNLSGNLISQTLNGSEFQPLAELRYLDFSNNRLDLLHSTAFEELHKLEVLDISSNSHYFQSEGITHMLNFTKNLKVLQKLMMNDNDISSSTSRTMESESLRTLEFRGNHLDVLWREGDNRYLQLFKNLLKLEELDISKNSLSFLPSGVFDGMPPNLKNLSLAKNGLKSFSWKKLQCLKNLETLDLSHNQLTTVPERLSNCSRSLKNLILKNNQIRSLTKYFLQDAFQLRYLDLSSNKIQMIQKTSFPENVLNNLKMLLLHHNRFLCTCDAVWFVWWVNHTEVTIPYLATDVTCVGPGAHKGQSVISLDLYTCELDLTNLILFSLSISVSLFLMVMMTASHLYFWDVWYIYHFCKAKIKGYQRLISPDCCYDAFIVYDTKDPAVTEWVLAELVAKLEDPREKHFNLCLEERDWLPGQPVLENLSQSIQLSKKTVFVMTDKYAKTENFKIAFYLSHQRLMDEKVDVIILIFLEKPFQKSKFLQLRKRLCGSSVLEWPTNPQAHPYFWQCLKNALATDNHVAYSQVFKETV
# Description: as §1
# PBMCs = experiment: PBMC assay, IL-6 release (HTRF); format: cell-based; settings: PBMCs from healthy donors, overnight, IL-6 induction by HTRF, average of quadruplicate
# Description: Whole peripheral blood was obtained from healthy donors. PBMCs were isolated from peripheral blood by density gradient centrifugation. […] The plasma layer containing PBMCs was poured into a new tube and washed twice. Isolated PBMCs were either used fresh or thawed from previously frozen. 1×10^5 PBMCs were cultured with titrating concentrations of compounds of Formula I overnight followed by assaying for cytokines by homogeneous time resolved fluorescence (HTRF).
SMILES,EC50 (TLR8) [nM],EC50 (TLR7) [nM],EC50 (PBMCs) [nM]
"CCCCc1nc2c(N)nc3ccsc3c2n1Cc1ccc(CNCc2ccc(CNC(=O)OC(C)(C)C)cc2)cc1 [Compound 155, tert-butyl (4-(((4-((4-amino-2-butyl-1H-imidazo[4,5-d]thieno[3,2-b]pyridin-1-yl)methyl)benzyl)amino)methyl)benzyl)carbamate]",> 1000,444,110
"CCCCc1nc2c(N)nc3ccsc3c2n1Cc1ccc(CNCCNC(=O)OC(C)(C)C)cc1 [Compound 160, tert-butyl (2-((4-((4-amino-2-butyl-1H-imidazo[4,5-d]thieno[3,2-b]pyridin-1-yl)methyl)benzyl)amino)ethyl)carbamate]",> 1000,8.7,32
"CCCCc1nc2c(N)nc3ccsc3c2n1Cc1ccc(C=O)cc1 [Compound 164, 4-((4-amino-2-butyl-1H-imidazo[4,5-d]thieno[3,2-b]pyridin-1-yl)methyl)benzaldehyde]",> 1000,> 1000,> 1000
"CCCCc1nc2c(N)nc3ccsc3c2n1Cc1ccc(CN2CCN(CCNC(=O)OC(C)(C)C)CC2)cc1 [Compound 165, tert-butyl (2-(4-(4-((4-amino-2-butyl-1H-imidazo[4,5-d]thieno[3,2-b]pyridin-1-yl)methyl)benzyl)piperazin-1-yl)ethyl)carbamate]",> 1000,15,65
"CCCCc1nc2c(N)nc3ccsc3c2n1CCCCCO [Compound 172, 5-(4-amino-2-butyl-1H-imidazo[4,5-d]thieno[3,2-b]pyridin-1-yl)pentan-1-ol]",> 1000,27,580
"CCCCc1nc2c(N)nc3ccsc3c2n1CCCCCN=[N+]=[N-] [Compound 173, 1-(5-azidopentyl)-2-butyl-1H-imidazo[4,5-d]thieno[3,2-b]pyridin-4-amine]",> 1000,> 1000,> 1000
"CCCCc1nc2c(N)nc3ccsc3c2n1CCCCCN1CCC(c2ccncc2)CC1 [Compound 174, 2-butyl-1-(5-(4-(pyridin-4-yl)piperidin-1-yl)pentyl)-1H-imidazo[4,5-d]thieno[3,2-b]pyridin-4-amine]",> 1000,21,78
"CCCCc1nc2c(N)nc3ccsc3c2n1CCCCCN(CC)CC [Compound 175, 2-butyl-1-(5-(diethylamino)pentyl)-1H-imidazo[4,5-d]thieno[3,2-b]pyridin-4-amine]",380,12,99
"CCCCc1nc2c(N)nc3ccsc3c2n1CCCCCN1CCN(CCN2CCOCC2)CC1 [Compound 176, 2-butyl-1-(5-(4-(2-morpholinoethyl)piperazin-1-yl)pentyl)-1H-imidazo[4,5-d]thieno[3,2-b]pyridin-4-amine]",> 1000,33,58
"CCCCc1nc2c(N)nc3ccsc3c2n1CCCCCNCC(C)(C)N1CCOCC1 [Compound 177, 2-butyl-1-(5-((2-methyl-2-morpholinopropyl)amino)pentyl)-1H-imidazo[4,5-d]thieno [3,2-b]pyridin-4-amine]",570,24,270
"CCCCc1nc2c(N)nc3ccsc3c2n1CCCCCNCCCCCO [Compound 178, 5-((5-(4-amino-2-butyl-1H-imidazo[4,5-d]thieno[3,2-b]pyridin-1-yl)pentyl)amino) pentan-1-ol]",> 1000,37,> 1000
"CCCCc1nc2c(N)nc3ccsc3c2n1CCCCCNCc1ccc(CO)cc1 [Compound 179, (4-(((5-(4-amino-2-butyl-1H-imidazo[4,5-d]thieno[3,2-b]pyridin-1-yl)pentyl)amino)methyl)phenyl)methanol]",260,12,76
"CCCCc1nc2c(N)nc3ccsc3c2n1CCCCCNCC(C)(C)O [Compound 180, 1-((5-(4-amino-2-butyl-1H-imidazo[4,5-d]thieno[3,2-b]pyridin-1-yl)pentyl)amino)-2-methylpropan-2-ol]",> 1000,83,610
CCCCc1nc2c(N)nc3ccsc3c2n1CCCCCN1CCNCC1 [Compound 182],> 1000,24,160
"CCCCc1nc2c(N)nc3ccsc3c2n1CCCCCNCc1cc[nH]c1 [Compound 183, 1-(5-(((1H-pyrrol-3-yl)methyl)amino)pentyl)-2-butyl-1H-imidazo[4,5-d]thieno[3,2-b]pyridin-4-amine]",> 1000,34,> 1000
"CCCCc1nc2c(N)nc3ccsc3c2n1Cc1cccc(CN2CCN(C(=O)OC(C)(C)C)CC2)c1 [Compound 196, tert-butyl 4-(3-((4-amino-2-butyl-1H-imidazo[4,5-d]thieno[3,2-b]pyridin-1-yl)methyl)benzyl)piperazine-1-carboxylate]",> 1000,> 1000,> 1000
"CCCCc1nc2c(N)nc3ccsc3c2n1Cc1cccc(CNCc2cc[nH]c2)c1 [Compound 197, 1-(3-((((1H-pyrrol-3-yl)methyl)amino)methyl)benzyl)-2-butyl-1H-imidazo[4,5-d]thieno [3,2-b]pyridin-4-amine]",490,63,290
"CCCCc1nc2c(N)nc3ccsc3c2n1Cc1cccc(CN2CCC(c3ccncc3)CC2)c1 [Compound 198, 2-butyl-1-(3-((4-(pyridin-4-yl)piperidin-1-yl)methyl)benzyl)-1H-imidazo[4,5-d]thieno [3,2-b]pyridin-4-amine]",> 1000,220,280
"CCCCc1nc2c(N)nc3ccsc3c2n1Cc1cccc(CN(CC)CC)c1 [Compound 199, 2-butyl-1-(3-((diethylamino)methyl)benzyl)-1H-imidazo[4,5-d]thieno[3,2-b]pyridin-4-amine]",430,130,330
"CCCCc1nc2c(N)nc3ccsc3c2n1Cc1cccc(CN2CCN(CCN3CCOCC3)CC2)c1 [Compound 200, 2-butyl-1-(3-((4-(2-morpholinoethyl)piperazin-1-yl)methyl)benzyl)-1H-imidazo[4,5-d]thieno[3,2-b]pyridin-4-amine]",> 1000,550,> 1000
"CCCCc1nc2c(N)nc3ccsc3c2n1Cc1cccc(CNCC(C)(C)N2CCOCC2)c1 [Compound 202, 2-butyl-1-(3-(((2-methyl-2-morpholinopropyl)amino)methyl)benzyl)-1H-imidazo[4,5-d]thieno[3,2-b]pyridin-4-amine]",950,330,750
